Source: ChEMBL document CHEMBL4196240, “Structurally Diverse Sesquiterpenoids from the Endangered Ornamental Plant Michelia shiluensis” (J Nat Prod, 2018)

Legend:
A549 = assay: Cytotoxicity against human A549 cells after 24 hrs by MTS assay; format: functional, cell-based; settings: A549, 24 h
MCF7 = assay: Cytotoxicity against human MCF7 cells after 24 hrs by MTS assay; format: functional, cell-based; settings: MCF7, 24 h
[1] = biological target: T1, Tyrosine-protein phosphatase non-receptor type 1 (Homo sapiens, UniProt P18031); assay: Inhibition of recombinant human GST-tagged PTP1B catalytic domain using para-nitrophenyl phosphate as substrate
T1 sequence (P18031 whole entry): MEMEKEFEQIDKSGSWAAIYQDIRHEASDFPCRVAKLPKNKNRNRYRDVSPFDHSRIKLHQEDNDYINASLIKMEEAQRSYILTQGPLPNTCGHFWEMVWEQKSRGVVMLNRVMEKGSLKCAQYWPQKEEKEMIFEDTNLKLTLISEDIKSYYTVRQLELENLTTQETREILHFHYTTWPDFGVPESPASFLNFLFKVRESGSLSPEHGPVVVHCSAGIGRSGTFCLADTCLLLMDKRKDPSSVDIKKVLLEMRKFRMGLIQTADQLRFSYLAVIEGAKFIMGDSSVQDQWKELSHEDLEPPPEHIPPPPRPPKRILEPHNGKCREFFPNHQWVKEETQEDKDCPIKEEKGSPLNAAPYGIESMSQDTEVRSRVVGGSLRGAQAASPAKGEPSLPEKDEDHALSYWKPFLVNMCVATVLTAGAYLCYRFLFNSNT

IC50 [1]	Compound	IC50 (A549)	IC50 (MCF7)
	C=C1C(=O)O[C@H]2[C@H]1[C@H](OC(C)=O)C/C(C)=C/CC[C@@]1(C)O[C@@H]21	7.3 µM	1.5 µM
	CC[C@]1(O)C(=O)O[C@H]2[C@H]1[C@H](OC(C)=O)C/C(C)=C/CC[C@@]1(C)O[C@@H]21	> 200 µM	45.7 µM
46.3 µM	CC(=O)CC[C@@H]1C[C@@]2(OC1(C)C)C(=O)CC[C@@]2(C)O		
	COc1cccc2c1C(=O)c1c(O)c3c(c(O)c1C2=O)C[C@@](O)(C(=O)CO)C[C@@H]3O[C@H]1C[C@H](N)[C@H](O)[C@H](C)O1 [DOXORUBICIN]	0.21 µM	
